Measurements published in article PMC11221653, “Isolation and characterization of plant-derived exosome-like nanoparticles from Carica papaya L. fruit and their potential as anti-inflammatory agent” (PLOS ONE, 2024).

Tests used:
[1] = set-up: method as in PMID 35494787; conditions: concentration 17.5 μM; ref [87]; cited from earlier work
[2] = system: NO production in LPS-induced RAW 264.7 cells; assay: Nitric oxide assay (Griess reagent, nitrite); type: cell-based; conditions: PDENs 5, 10, 20 μg/mL or dexamethasone 1 μg/ml for 24 h, then LPS 50 ng/mL for 6 h
Description: RAW 264.7 cells were cultured in 96-well plates, with a density of 1 × 10^4 cells per well and incubated for 24 hours. Following this, they were exposed to various concentrations of PDENs (0, 5, 10, and 20 μg/ml) and dexamethasone (1 μg/ml) (Sigma-Aldrich, USA) for 24 hours. Thereafter, the cells were treated with LPS (50 ng/mL) (Sigma-Aldrich, USA) for an additional 6 hours. To measure the nitric oxide in the culture media, we utilized the Protocol from Griess Reagent Kit for Nitrite Determination (G-7921) (Thermo Fisher Scientific, USA). Briefly, 50 microliters of cell culture medium from each treatment were mixed with Griess reagent (1:1) and incubated for 15 minutes in the dark. The samples were measured at a wavelength of 540 nm using a microplate reader Bio-Rad iMark.

Row | SMILES | radical scavenging activity [1] [%] | NO production versus LPS-induced cells [2]
1 | CC1=C(O)C(=O)C(O)CO1 (stereo not drawn) [DDMP, 2,3-dihydro-3,5-dihydroxy-6-methyl-4H-pyran-4-one] | 81.1 | 
2 | Cc1cc(C(C)(C)C)c(O)c(C(C)(C)C)c1 [butylated hydroxytoluene] | 58.4 | 
3 | C[C@@H]1C[C@H]2[C@@H]3CCC4=CC(=O)C=C[C@]4(C)[C@@]3(F)[C@@H](O)C[C@]2(C)[C@@]1(O)C(=O)CO [dexamethasone] |  | significantly reduce NO production
